# Measured values as given in PMC5218480 (PLoS ONE, 2017).
# System: MV-4-11 cells
# Assay: Gene expression microarray analysis (Affymetrix PrimeView) and GSEA
# Format: cell-based, human
# Set-up: RFU PODN (11730768_x_at) / Fold change /veh PODN (11730768_x_at) / RFU LINC00158 (11744669_a_at) / Fold change /veh LINC00158 (11744669_a_at) / RFU DUSP10 (11751237_a_at) / Fold change /veh DUSP10 (11751237_a_at) / RFU ID3 (11757404_x_at) / Fold change /veh ID3 (11757404_x_at) / RFU PLEKHG5 (11737974_s_at) / Fold change /veh PLEKHG5 (11737974_s_at) / RFU LRRC4B (11730491_at) / Fold change /veh LRRC4B (11730491_at) / RFU GIMAP4 (11747438_a_at) / Fold change /veh GIMAP4 (11747438_a_at) / RFU KRT8 (11758183_x_at) / Fold change /veh KRT8 (11758183_x_at) / RFU CNN1 (11734310_a_at) / Fold change /veh CNN1 (11734310_a_at) / RFU VPS37D (11726825_at) / Fold change /veh VPS37D (11726825_at) / RFU C10orf10 (11716522_x_at) / Fold change /veh C10orf10 (11716522_x_at) / RFU KIR2DL2 /// KIR2DL4 /// KIR2DL5A /// KIR2DL5B /// KIR2DS1 /// KIR2DS2 /// KIR2DS3 /// KIR2DS4 /// KIR3DL3 /// KIR3DL3 /// KIR3DS1 (11738374_at) / Fold change /veh KIR2DL2 /// KIR2DL4 /// KIR2DL5A /// KIR2DL5B /// KIR2DS1 /// KIR2DS2 /// KIR2DS3 /// KIR2DS4 /// KIR3DL3 /// KIR3DL3 /// KIR3DS1 (11738374_at) / RFU C1QL1 (11718748_at) / Fold change /veh C1QL1 (11718748_at) / RFU TMPRSS4 (11747572_a_at) / Fold change /veh TMPRSS4 (11747572_a_at) / RFU HAMP (11756126_x_at) / Fold change /veh HAMP (11756126_x_at) / RFU RNFT2 (11725882_a_at) / Fold change /veh RNFT2 (11725882_a_at) / RFU NR4A2 (11747474_a_at) / Fold change /veh NR4A2 (11747474_a_at) / RFU ABCC12 (11746883_a_at) / Fold change /veh ABCC12 (11746883_a_at) / RFU TMEM136 (11760407_x_at) / Fold change /veh TMEM136 (11760407_x_at) / RFU CLDN22 /// WWC2 (11732394_at) / Fold change /veh CLDN22 /// WWC2 (11732394_at) / RFU HLA-DPB1 (11760878_x_at) / Fold change /veh HLA-DPB1 (11760878_x_at) / RFU SPINT1 (11716480_a_at) / Fold change /veh SPINT1 (11716480_a_at) / RFU GAP43 (11754022_s_at) / Fold change /veh GAP43 (11754022_s_at) / RFU A4GNT (11735810_at) / Fold change /veh A4GNT (11735810_at) / RFU PRB3 (11715151_x_at) / Fold change /veh PRB3 (11715151_x_at) / RFU TUBB4B (11761932_at) / Fold change /veh TUBB4B (11761932_at) / RFU CAPN14 (11732068_a_at) / Fold change /veh CAPN14 (11732068_a_at) / RFU TMCC2 (11721928_a_at) / Fold change /veh TMCC2 (11721928_a_at) / RFU IRGQ (11745062_a_at) / Fold change /veh IRGQ (11745062_a_at) / RFU FAM174B (11720279_a_at) / Fold change /veh FAM174B (11720279_a_at) / RFU TMPRSS4 (11748680_a_at) / Fold change /veh TMPRSS4 (11748680_a_at) / RFU FAM212B (11763350_a_at) / Fold change /veh FAM212B (11763350_a_at) / RFU PLEKHG5 (11743358_a_at) / Fold change /veh PLEKHG5 (11743358_a_at) / RFU ZSCAN30 (11745921_a_at) / Fold change /veh ZSCAN30 (11745921_a_at) / RFU CMKLR1 (11741424_a_at) / Fold change /veh CMKLR1 (11741424_a_at) / RFU LOC101060620 /// MAPK8IP1 (11723275_at) / Fold change /veh LOC101060620 /// MAPK8IP1 (11723275_at) / RFU SPTSSB (11747773_x_at) / Fold change /veh SPTSSB (11747773_x_at) / RFU PRSS12 (11739890_at) / Fold change /veh PRSS12 (11739890_at) / RFU BIN1 (11741810_x_at) / Fold change /veh BIN1 (11741810_x_at) / RFU WNT11 (11732464_a_at) / Fold change /veh WNT11 (11732464_a_at) / RFU C10orf10 (11716521_a_at) / Fold change /veh C10orf10 (11716521_a_at) / RFU C5orf56 (11738089_at) / Fold change /veh C5orf56 (11738089_at) / RFU CYB561 (11721691_x_at) / Fold change /veh CYB561 (11721691_x_at) / RFU ANKRD19P (11752326_a_at) / Fold change /veh ANKRD19P (11752326_a_at) / RFU OR2T12 /// OR2T33 /// OR2T8 (11738714_s_at) / Fold change /veh OR2T12 /// OR2T33 /// OR2T8 (11738714_s_at) / RFU VCAN (11748164_a_at) / Fold change /veh VCAN (11748164_a_at) / RFU JSRP1 (11732532_at) / Fold change /veh JSRP1 (11732532_at) / RFU KRTAP10-11 (11738290_x_at) / Fold change /veh KRTAP10-11 (11738290_x_at) / RFU MYO3A (11730013_a_at) / Fold change /veh MYO3A (11730013_a_at) / RFU EBF3 (11725865_a_at) / Fold change /veh EBF3 (11725865_a_at) / RFU CAMK2N1 (11719241_x_at) / Fold change /veh CAMK2N1 (11719241_x_at) / RFU C5orf56 (11738088_a_at) / Fold change /veh C5orf56 (11738088_a_at) / RFU OLFML3 (11715873_a_at) / Fold change /veh OLFML3 (11715873_a_at) / RFU LOC100653217 /// NTM (11731650_a_at) / Fold change /veh LOC100653217 /// NTM (11731650_a_at) / RFU MAPK11 (11762145_a_at) / Fold change /veh MAPK11 (11762145_a_at) / RFU FIZ1 (11724087_x_at) / Fold change /veh FIZ1 (11724087_x_at) / RFU OASL (11726364_x_at) / Fold change /veh OASL (11726364_x_at) / RFU SOX15 (11748057_x_at) / Fold change /veh SOX15 (11748057_x_at) / RFU CD79A (11719716_a_at) / Fold change /veh CD79A (11719716_a_at) / RFU HIST1H1D (11736915_at) / Fold change /veh HIST1H1D (11736915_at) / RFU CASKIN2 (11723855_a_at) / Fold change /veh CASKIN2 (11723855_a_at) / RFU LOC730098 (11760151_x_at) / Fold change /veh LOC730098 (11760151_x_at) / RFU OR4N2 (11742367_at) / Fold change /veh OR4N2 (11742367_at) / RFU PRRT2 (11749266_a_at) / Fold change /veh PRRT2 (11749266_a_at) / RFU SNX32 (11753110_a_at) / Fold change /veh SNX32 (11753110_a_at) / RFU CDHR5 (11726645_a_at) / Fold change /veh CDHR5 (11726645_a_at) / RFU RCAN1 (11760418_a_at) / Fold change /veh RCAN1 (11760418_a_at) / RFU FAM167A (11723789_a_at) / Fold change /veh FAM167A (11723789_a_at) / RFU FAM26E (11764081_at) / Fold change /veh FAM26E (11764081_at) / RFU ISYNA1 (11749810_s_at) / Fold change /veh ISYNA1 (11749810_s_at) / RFU ACY1 (11761880_at) / Fold change /veh ACY1 (11761880_at) / RFU 11764098_at / Fold change /veh 11764098_at / RFU SAMD14 (11745864_x_at) / Fold change /veh SAMD14 (11745864_x_at) / RFU NPB (11741838_a_at) / Fold change /veh NPB (11741838_a_at) / RFU TMPRSS6 (11731388_a_at) / Fold change /veh TMPRSS6 (11731388_a_at) / RFU KRTAP10-2 (11738614_at) / Fold change /veh KRTAP10-2 (11738614_at) / RFU ARHGAP8 /// PRR5-ARHGAP8 (11727945_x_at) / Fold change /veh ARHGAP8 /// PRR5-ARHGAP8 (11727945_x_at) / RFU KRTAP5-7 /// NADSYN1 (11734609_at) / Fold change /veh KRTAP5-7 /// NADSYN1 (11734609_at) / RFU RASL12 (11751679_a_at) / Fold change /veh RASL12 (11751679_a_at) / RFU CDKN2B (11736163_a_at) / Fold change /veh CDKN2B (11736163_a_at) / RFU PRF1 (11729649_at) / Fold change /veh PRF1 (11729649_at) / RFU, ZNF638 /// ZNF638-IT1 / Fold change vs veh, ZNF638 /// ZNF638-IT1 / RFU, PANK3 / Fold change vs veh, PANK3 / RFU, SH3YL1 / Fold change vs veh, SH3YL1 / RFU, ZEB2 / Fold change vs veh, ZEB2 / RFU, NRIP1 / Fold change vs veh, NRIP1 / RFU, PTTG1IP / Fold change vs veh, PTTG1IP / RFU, CAPN2 / Fold change vs veh, CAPN2 / RFU, MED14 / Fold change vs veh, MED14 / RFU, SNORA58 / Fold change vs veh, SNORA58 / RFU, C1orf63 / Fold change vs veh, C1orf63 / RFU, LRRFIP1 / Fold change vs veh, LRRFIP1 / RFU, NDUFAF7 / Fold change vs veh, NDUFAF7 / RFU, SLC12A2 / Fold change vs veh, SLC12A2 / RFU, IBTK / Fold change vs veh, IBTK / RFU, ESF1 / Fold change vs veh, ESF1 / Fold change vs veh, TMEM50B / RFU, TAOK1 / Fold change vs veh, TAOK1 / RFU, ACBD3 / Fold change vs veh, ACBD3 / RFU, TMA16 / Fold change vs veh, TMA16 / RFU, RWDD3 / Fold change vs veh, RWDD3 / RFU, BCAT1 / Fold change vs veh, BCAT1 / RFU, EDEM3 / Fold change vs veh, EDEM3 / RFU, TMEM33 / Fold change vs veh, TMEM33 / RFU, WDR75 / Fold change vs veh, WDR75 / RFU, AHCTF1 / Fold change vs veh, AHCTF1 / RFU, TFRC / Fold change vs veh, TFRC / RFU, ZDHHC17 / Fold change vs veh, ZDHHC17 / RFU, NOM1 / Fold change vs veh, NOM1 / RFU, ARL8B / Fold change vs veh, ARL8B / RFU, ZBTB11 / Fold change vs veh, ZBTB11 / RFU, TAMM41 / Fold change vs veh, TAMM41 / RFU, KIAA1704 /// LOC100996395 / Fold change vs veh, KIAA1704 /// LOC100996395 / RFU, ING1 / Fold change vs veh, ING1 / RFU, TRMT61B / Fold change vs veh, TRMT61B / RFU, FUBP3 / Fold change vs veh, FUBP3 / RFU, TP53 / Fold change vs veh, TP53 / RFU, TNKS2 / Fold change vs veh, TNKS2 / RFU, ZFP14 / Fold change vs veh, ZFP14 / RFU, ACTR2 / Fold change vs veh, ACTR2 / RFU, PPP3R1 / Fold change vs veh, PPP3R1 / RFU, PIK3R1 / Fold change vs veh, PIK3R1 / RFU, HNRNPA1 / Fold change vs veh, HNRNPA1 / RFU, RNF170 / Fold change vs veh, RNF170 / RFU, ZNF28 / Fold change vs veh, ZNF28 / RFU, RNGTT / Fold change vs veh, RNGTT / RFU, OGT / Fold change vs veh, OGT / RFU, BRD1 / Fold change vs veh, BRD1 / RFU, MARS / Fold change vs veh, MARS / RFU, ZNF655 / Fold change vs veh, ZNF655 / RFU, FAHD1 / Fold change vs veh, FAHD1 / RFU, BDP1 / Fold change vs veh, BDP1 / RFU, LRRCC1 / Fold change vs veh, LRRCC1 / RFU, ARID1A / Fold change vs veh, ARID1A / RFU, ZNF146 / Fold change vs veh, ZNF146 / RFU, ZNF330 / Fold change vs veh, ZNF330 / RFU, GPN3 / Fold change vs veh, GPN3 / RFU, C9orf123 / Fold change vs veh, C9orf123 / RFU, N4BP2L2 / Fold change vs veh, N4BP2L2 / RFU, ARFIP1 / Fold change vs veh, ARFIP1 / RFU, FAM179B / Fold change vs veh, FAM179B / RFU, BCL10 / Fold change vs veh, BCL10 / RFU, UHRF1BP1L / Fold change vs veh, UHRF1BP1L / RFU, BET1 / Fold change vs veh, BET1 / RFU, CNOT2 / Fold change vs veh, CNOT2 / RFU, ZNF268 / Fold change vs veh, ZNF268 / Fold change vs veh, ZNF507 / RFU, DGCR2 / Fold change vs veh, DGCR2 / RFU, WDSUB1 / Fold change vs veh, WDSUB1 / Fold change vs veh, HSP90B1 /// MIR3652 / RFU, ADSS / Fold change vs veh, ADSS / RFU, GK / Fold change vs veh, GK / RFU, ZNF148 / Fold change vs veh, ZNF148 / RFU, TAF9 / Fold change vs veh, TAF9 / RFU, SLC1A5 / Fold change vs veh, SLC1A5 / RFU, SLMO2 / Fold change vs veh, SLMO2 / RFU, ABCC4 / Fold change vs veh, ABCC4 / RFU, LOC101060439 /// RAP1B / Fold change vs veh, LOC101060439 /// RAP1B / RFU, RFX7 / Fold change vs veh, RFX7 / RFU, GTPBP10 / Fold change vs veh, GTPBP10 / RFU, CNEP1R1 / Fold change vs veh, CNEP1R1 / RFU, BIVM-ERCC5 /// ERCC5 / Fold change vs veh, BIVM-ERCC5 /// ERCC5 / RFU, ILF3 / Fold change vs veh, ILF3 / RFU 11762660_at / Fold change /veh 11762660_at / RFU VCAN (11757783_s_at) / Fold change /veh VCAN (11757783_s_at) / RFU DDX43 (11728927_at) / Fold change /veh DDX43 (11728927_at) / RFU KRT8 (11758188_x_at) / Fold change /veh KRT8 (11758188_x_at) / RFU NKD1 (11759106_at) / Fold change /veh NKD1 (11759106_at) / RFU SRD5A1 (11742802_a_at) / Fold change /veh SRD5A1 (11742802_a_at) / RFU TPSAB1 /// TPSB2 (11721975_s_at) / Fold change /veh TPSAB1 /// TPSB2 (11721975_s_at) / RFU GSTM3 (11746129_a_at) / Fold change /veh GSTM3 (11746129_a_at) / RFU IL23R (11737362_x_at) / Fold change /veh IL23R (11737362_x_at) / RFU TMEM51 (11727254_a_at) / Fold change /veh TMEM51 (11727254_a_at) / RFU PIWIL2 (11732686_x_at) / Fold change /veh PIWIL2 (11732686_x_at) / RFU ORM1 (11744905_x_at) / Fold change /veh ORM1 (11744905_x_at) / RFU CCDC152 (11743942_at) / Fold change /veh CCDC152 (11743942_at) / RFU ECM1 (11717891_a_at) / Fold change /veh ECM1 (11717891_a_at) / RFU IL23R (11748794_a_at) / Fold change /veh IL23R (11748794_a_at) / RFU TNFAIP8L3 (11732012_x_at) / Fold change /veh TNFAIP8L3 (11732012_x_at) / RFU MBOAT4 (11741988_at) / Fold change /veh MBOAT4 (11741988_at) / RFU 11764193_at / Fold change /veh 11764193_at / RFU TMEM53 (11763286_at) / Fold change /veh TMEM53 (11763286_at) / RFU MAGEB2 (11727129_at) / Fold change /veh MAGEB2 (11727129_at) / RFU TMEM200A (11744735_a_at) / Fold change /veh TMEM200A (11744735_a_at) / RFU CCDC152 (11751479_a_at) / Fold change /veh CCDC152 (11751479_a_at) / RFU FAM211A (11726209_a_at) / Fold change /veh FAM211A (11726209_a_at) / RFU RGS16 (11746705_a_at) / Fold change /veh RGS16 (11746705_a_at) / RFU VCAN (11755009_s_at) / Fold change /veh VCAN (11755009_s_at) / RFU RHOB (11743442_s_at) / Fold change /veh RHOB (11743442_s_at) / RFU RGS16 (11720943_a_at) / Fold change /veh RGS16 (11720943_a_at) / RFU RGS16 (11720944_at) / Fold change /veh RGS16 (11720944_at) / RFU, VPS4B / Fold change vs veh, VPS4B / RFU, CREB1 / Fold change vs veh, CREB1 / RFU, DNAJC13 / Fold change vs veh, DNAJC13 / RFU, GNAQ / Fold change vs veh, GNAQ / RFU, CDK5R1 / Fold change vs veh, CDK5R1 / RFU, ZRANB3 / Fold change vs veh, ZRANB3 / RFU, CUL4A / Fold change vs veh, CUL4A / RFU, CCNY / Fold change vs veh, CCNY / RFU, UFL1 / Fold change vs veh, UFL1 / RFU, COG3 / Fold change vs veh, COG3 / RFU, DIAPH2 / Fold change vs veh, DIAPH2 / RFU, SKA2 / Fold change vs veh, SKA2 / RFU, AFF3 / Fold change vs veh, AFF3 / RFU, LMF1 / Fold change vs veh, LMF1 / RFU, IPO11 / Fold change vs veh, IPO11 / RFU, DFFB / Fold change vs veh, DFFB / RFU, FOXP1 / Fold change vs veh, FOXP1 / RFU, CARD8 / Fold change vs veh, CARD8 / RFU, STRN3 / Fold change vs veh, STRN3 / RFU, ADK / Fold change vs veh, ADK / RFU, RASSF2 / Fold change vs veh, RASSF2 / RFU, WIPF1 / Fold change vs veh, WIPF1 / RFU, LARP1B / Fold change vs veh, LARP1B / RFU, RASA1 / Fold change vs veh, RASA1 / RFU, RB1 / Fold change vs veh, RB1 / RFU, PPFIA1 / Fold change vs veh, PPFIA1 / RFU, MAT2A / Fold change vs veh, MAT2A / RFU, CCT5 / Fold change vs veh, CCT5 / RFU, WDR92 / Fold change vs veh, WDR92 / RFU, CUX1 / Fold change vs veh, CUX1 / RFU, TTC7A / Fold change vs veh, TTC7A / RFU, TMEM135 / Fold change vs veh, TMEM135 / RFU, DEPTOR / Fold change vs veh, DEPTOR / RFU, CPM / Fold change vs veh, CPM / RFU, DNAJB6 / Fold change vs veh, DNAJB6 / RFU, CACNA2D3 / Fold change vs veh, CACNA2D3 / RFU, DTX4 / Fold change vs veh, DTX4 / RFU, TFCP2 / Fold change vs veh, TFCP2 / RFU, GMCL1 /// GMCL1P1 / Fold change vs veh, GMCL1 /// GMCL1P1 / RFU, AEBP2 / Fold change vs veh, AEBP2 / RFU, SNHG1 /// SNORD22 /// SNORD25 /// SNORD26 /// SNORD27 /// SNORD28 /// SNORD29 /// SNORD31 / Fold change vs veh, SNHG1 /// SNORD22 /// SNORD25 /// SNORD26 /// SNORD27 /// SNORD28 /// SNORD29 /// SNORD31 / Fold change (Aza/veh), C12orf56 (ProbeSet 11735607_a_at) / Fold change (ACY-1035/veh), C12orf56 (ProbeSet 11735607_a_at) / Fold change (Aza/veh), FGFR1OP (ProbeSet 11751329_s_at) / Fold change (ACY-1035/veh), FGFR1OP (ProbeSet 11751329_s_at) / Fold change (Aza/veh), VPS36 (ProbeSet 11739960_a_at) / Fold change (ACY-1035/veh), VPS36 (ProbeSet 11739960_a_at) / RFU SYPL1 (11715823_x_at) / Fold change /veh SYPL1 (11715823_x_at) / RFU IGFBP7 (11715501_s_at) / Fold change /veh IGFBP7 (11715501_s_at) / RFU REEP3 (11722064_at) / Fold change /veh REEP3 (11722064_at) / RFU IGLL1 (11728026_x_at) / Fold change /veh IGLL1 (11728026_x_at): dose or concentration left out as unconfirmed
# Conditions: MV-4-11 cells, 48 hours
compound,measurement,value
Nc1ccc(-c2cccs2)cc1NC(=O)c1ccc2c(c1)cc(C1CC1)n2CCN1CCOCC1 [ACY-1035],RFU IL23R (11737362_x_at),7.94 RFU
